From patent US8637252B2, “Methods and compositions for determining altered susceptibility of HIV-1 to anti-HIV drugs” (Monogram Biosciences, Inc., priority 2011, dated 2014)
“And” between values parts separate entries of the source, which are not always exact repeats. Equal values may be shown once.

System: HIV-1 (patient-derived RHIN segment)
Experiment: phenotypic drug resistance test, resistance test vectors with patient-derived RHIN segment, luciferase, 293 cells
Format: cell-based
Description: Patient-derived segment(s) corresponding to the entire pol gene, encoding HIV protease, reverse transcriptase (including RNAse H), and integrase (hereinafter “POL”), the portion of pol encoding amino acids 1-305 of reverse transcriptase (hereinafter “PR-RT”), the portion of pol encoding amino acids 319-440 of reverse transcriptase (including RNAse H), and integrase (hereinafter “RHIN”), were amplified by the reverse transcription-polymerase chain reaction method (RT-PCR) using viral RNA isolated from viral particles present in the plasma or serum of HIV-infected individuals as described below. The portion of pol encoding protease, amino acids 1-531 of reverse transcriptase (including RNase H) (hereinafter “PRRT-RH”), or the portion of pol encoding protease, reverse transcriptase (including RNAse H) and integrase (hereinafter “PRRT-RHIN”), were assembled from amplicons described above by standard recombinant DNA techniques involving a KpnI restriction site at amino acid 400 or a Pin A1 site at amino acid 315.
Virus was pelleted by centrifugation at 20,400×g for 60 min from plasma (typically, 1 ml) prepared from blood samples collected in evacuated tubes containing either EDTA, acid-citrate dextrose, or heparin as an anticoagulant. Virus particles were disrupted by resuspending the pellets in 200 [1.1 of lysis buffer (4 M guanidine thiocyanate, 0.1 M Tris HCl (pH 8.0), 0.5% sodium lauryl sarcosine, 1% dithiothreitol). RNA was extracted from viral lysates by using oligo(dT) linked to magnetic beads (Dynal, Oslo, Norway). Reverse transcription was performed with Superscript III (Invitrogen) at 50 degrees for 1 hour using primer 1.
From the resultant cDNA either POL or RHIN sequences were amplified using the Advantage High Fidelity PCR kit (BD Biosciences; Clontech). POL amplification products are made using forward Primer 3 containing an Apal site and reverse Primer 4 containing a Xho 1 site. RHIN amplification products are made using forward Primer 2 containing a P1NA1 site and reverse Primer 4 containing a Xho 1 site.
A retroviral vector designed to measure antiretroviral drug susceptibility was constructed by using an infectious molecular clone of HIV-1. The vector, referred to herein as an indicator gene viral vector (IGVV), is replication defective and contains a luciferase expression cassette inserted within a deleted region of the envelope (env) gene. The IGVV is described in U.S. Pat. No. 5,837,464 (International Publication Number WO 97/27319) which is hereby incorporated by reference in its entirety. This retroviral vector was further modified to allow insertion of either the entire pol gene (POL) or the portion of poi encoding amino acids 319-440 of reverse transcriptase, the RNase H portion of reverse transcriptase, and integrase (REIN) by engineering an Xho l restriction enzyme recognition site into vif. Prior to doing this, an Xho 1 site in nef was deleted. Resistance Test vectors (RTVs) were constructed by incorporating amplified POL or RHIN into the IGVV by using Apal and Xhol or PinAI and Xho 1 restriction sites respectively. RTVs were prepared as libraries (pools) in order to capture and preserve the pol or RHIN sequence heterogeneity of the virus in the patient. POL amplification products were digested with Apal and Xhol, purified by agarose gel electrophoresis, and ligated to ApaI- and Xhol-digested IGVV DNA. RHIN amplification products were digested with PinAI and Xho/, purified by agarose gel electrophoresis, and ligated to PinAI and Xhol-digested IGVV DNA. Ligation reactions were used to transform competent Escherichia coli (Invitrogen, Carlsbad, Calif.). An aliquot of each transformation was plated onto agar, and colony counts were used to estimate the number of patient-derived segments represented in each RTV library. RTV libraries that comprised less than 50 members are not considered representative of the patient virus. […]

[1] = Sample 47 (K103K/N, V106V/A, Y181Y/C, G190G/A)
[2] = Sample 58 (K103N, Y181Y/C, G190G/A)
[3] = Sample 62 (K103H, P225P/H, T369T/I)
[4] = Sample 90 (K103K/N, Y181C, G190A)

## CC(C)Nc1cccnc1N1CCN(C(=O)c2cc3cc(NS(C)(=O)=O)ccc3[nH]2)CC1 [DLV, delavirdine]
Sample 31 (K103N)
  fold change in IC50, RHIN: 1.1 fold
Sample 33 (K103S)
  fold change in IC50, RHIN: 0.7 fold
Sample 34
  fold change in IC50, RHIN: 0.7 fold
Sample 35 (K103H)
  fold change in IC50, RHIN: 0.8 fold
Sample 36 (K103K/W)
  fold change in IC50, RHIN: 0.9 fold
Sample 38 (K103N)
  fold change in IC50, RHIN: 0.5 fold
Sample 39 (T369A)
  fold change in IC50, RHIN: 1.2 fold
Sample 42 (G190G/A)
  fold change in IC50, RHIN: 0.5 fold
Sample 45
  fold change in IC50, RHIN: 1.0 fold
[1]
  fold change in IC50, RHIN: 0.6 fold
Sample 50 (K103N)
  fold change in IC50, RHIN: 0.4 fold
Sample 51
  fold change in IC50, RHIN: 0.4 fold
Sample 52
  fold change in IC50, RHIN: 0.9 fold
[2]
  fold change in IC50, RHIN: 1.5 fold
[3]
  fold change in IC50, RHIN: 3.4 fold and 3.36 fold
Sample 64 (T369T/A)
  fold change in IC50, RHIN: 0.3 fold
Sample 69
  fold change in IC50, RHIN: 0.7 fold
Sample 72
  fold change in IC50, RHIN: 1.7 fold
Sample 80 (K103K/N, Y181Y/C)
  fold change in IC50, RHIN: 0.58 fold
Sample 81 (K103N, P225H)
  fold change in IC50, RHIN: 0.9 fold
Sample 84
  fold change in IC50, RHIN: 0.4 fold
Sample 85
  fold change in IC50, RHIN: 1.4 fold
Sample 87
  fold change in IC50, RHIN: 1.3 fold
Sample 89 (L1001, K103N)
  fold change in IC50, RHIN: 1.5 fold
[4]
  fold change in IC50, RHIN: 0.6 fold
Sample 92
  fold change in IC50, RHIN: 0.3 fold
Sample 93
  fold change in IC50, RHIN: 0.7 fold

## O=C1Nc2ccc(Cl)cc2[C@@](C#CC2CC2)(C(F)(F)F)O1 [EFV, efavirenz]
Sample 31 (K103N)
  fold change in IC50, RHIN: 1.1 fold
Sample 33 (K103S)
  fold change in IC50, RHIN: 0.7 fold
Sample 34
  fold change in IC50, RHIN: 1.0 fold
Sample 35 (K103H)
  fold change in IC50, RHIN: 0.7 fold
Sample 36 (K103K/W)
  fold change in IC50, RHIN: 1.0 fold
Sample 38 (K103N)
  fold change in IC50, RHIN: 0.5 fold
Sample 39 (T369A)
  fold change in IC50, RHIN: 0.9 fold
Sample 42 (G190G/A)
  fold change in IC50, RHIN: 0.4 fold
Sample 45
  fold change in IC50, RHIN: 1.0 fold
[1]
  fold change in IC50, RHIN: 0.5 fold
Sample 50 (K103N)
  fold change in IC50, RHIN: 0.5 fold
Sample 51
  fold change in IC50, RHIN: 0.4 fold
Sample 52
  fold change in IC50, RHIN: 1.0 fold
[2]
  fold change in IC50, RHIN: 0.9 fold
[3]
  fold change in IC50, RHIN: 1.8 fold and 1.83 fold
Sample 64 (T369T/A)
  fold change in IC50, RHIN: 0.3 fold
Sample 69
  fold change in IC50, RHIN: 0.8 fold
Sample 72
  fold change in IC50, RHIN: 1.0 fold
Sample 80 (K103K/N, Y181Y/C)
  fold change in IC50, RHIN: 0.52 fold
Sample 81 (K103N, P225H)
  fold change in IC50, RHIN: 1.2 fold
Sample 84
  fold change in IC50, RHIN: 0.5 fold
Sample 85
  fold change in IC50, RHIN: 1.2 fold
Sample 87
  fold change in IC50, RHIN: 1.3 fold
Sample 89 (L1001, K103N)
  fold change in IC50, RHIN: 1.2 fold
[4]
  fold change in IC50, RHIN: 0.7 fold
Sample 92
  fold change in IC50, RHIN: 0.3 fold
Sample 93
  fold change in IC50, RHIN: 0.9 fold

## Cc1ccnc2c1NC(=O)c1cccnc1N2C1CC1 [NVP, nevirapine]
Pool of patient sample 62, RT codons mutated: N348 (0.5), T369 (0.5), T377, T403
  FC: 7.61
Sample 31 (K103N)
  fold change in IC50, RHIN: 2.1 fold
Sample 33 (K103S)
  fold change in IC50, RHIN: 1.0 fold
Sample 34
  fold change in IC50, RHIN: 0.7 fold
Sample 35 (K103H)
  fold change in IC50, RHIN: 1.2 fold
Sample 36 (K103K/W)
  fold change in IC50, RHIN: 1.0 fold
Sample 38 (K103N)
  fold change in IC50, RHIN: 0.5 fold
Sample 39 (T369A)
  fold change in IC50, RHIN: 2.6 fold
Sample 42 (G190G/A)
  fold change in IC50, RHIN: 0.6 fold
Sample 45
  fold change in IC50, RHIN: 1.3 fold
[1]
  fold change in IC50, RHIN: 1.0 fold
Sample 50 (K103N)
  fold change in IC50, RHIN: 0.6 fold
Sample 51
  fold change in IC50, RHIN: 0.6 fold
Sample 52
  fold change in IC50, RHIN: 0.9 fold
[2]
  fold change in IC50, RHIN: 1.7 fold
[3]
  fold change in IC50, RHIN: 7.6 fold and 7.61 fold
Sample 64 (T369T/A)
  fold change in IC50, RHIN: 0.4 fold
Sample 69
  fold change in IC50, RHIN: 0.9 fold
Sample 72
  fold change in IC50, RHIN: 1.6 fold
Sample 80 (K103K/N, Y181Y/C)
  fold change in IC50, RHIN: 0.72 fold
Sample 81 (K103N, P225H)
  fold change in IC50, RHIN: 1.4 fold
Sample 84
  fold change in IC50, RHIN: 0.7 fold
Sample 85
  fold change in IC50, RHIN: 2.1 fold
Sample 87
  fold change in IC50, RHIN: 1.9 fold
Sample 89 (L1001, K103N)
  fold change in IC50, RHIN: 2.7 fold
[4]
  fold change in IC50, RHIN: 1.2 fold
Sample 92
  fold change in IC50, RHIN: 0.5 fold
Sample 93
  fold change in IC50, RHIN: 1.1 fold
Clone c03a of patient sample 62, RT codons mutated: T377, T403
  FC: 1.64
Clone c03b of patient sample 62, RT codons mutated: A355, T369, T377, T403
  FC: 5.51
Clone c08 of patient sample 62, RT codons mutated: H315, T369, T377
  FC: 12.98
Clone c10 of patient sample 62, RT codons mutated: N348, T377, T403
  FC: 28.07
Clone c12 of patient sample 62, RT codons mutated: T369, T377, T403
  FC: 9.18
Clone c14 of patient sample 62, RT codons mutated: Y342, T377, T403, R448
  FC: 6.48
Clone c15 of patient sample 62, RT codons mutated: N348, Y354, T403, N418
  FC: 2.37
Clone c16 of patient sample 62, RT codons mutated: T377, T403, D511 (0.5)
  FC: 2.19
Clone c18 of patient sample 62, RT codons mutated: A371, T377, T403
  FC: 2.46
Clone c20 of patient sample 62, RT codons mutated: T377, T403
  FC: 3.97
Clone c21 of patient sample 62, RT codons mutated: T377, T403, K550
  FC: 5.16
Clone c23 of patient sample 62, RT codons mutated: T369, T377, T403
  FC: 10.11
Clone c24 of patient sample 62, RT codons mutated: T377, T403
  FC: 4.77
Clone c26 of patient sample 62, RT codons mutated: T369, T377, T403
  FC: 12.00
Clone c28 of patient sample 62, RT codons mutated: T377, I393, T403, R448
  FC: 0.54
